Patent publication US20120077779A1, “Inhibitors of Fibroblast Activation Protein Alpha” (Trustees of Tufts College, priority 2005, published 2012)

Assays:
FAP = molecular target: T1, FAP (Homo sapiens, UniProt Q12884); assay: Enzymatic activity of purified FAP, chromogenic substrate H-Ala-Pro-pNA; type: biochemical; details: pH 7.4, 25° C.; for IC50: 10 min pre-incubation with enzyme; for IC50 FAP (pH 7.4): 10 min pre-incubation, result in words
T1 sequence (Q12884 1-760): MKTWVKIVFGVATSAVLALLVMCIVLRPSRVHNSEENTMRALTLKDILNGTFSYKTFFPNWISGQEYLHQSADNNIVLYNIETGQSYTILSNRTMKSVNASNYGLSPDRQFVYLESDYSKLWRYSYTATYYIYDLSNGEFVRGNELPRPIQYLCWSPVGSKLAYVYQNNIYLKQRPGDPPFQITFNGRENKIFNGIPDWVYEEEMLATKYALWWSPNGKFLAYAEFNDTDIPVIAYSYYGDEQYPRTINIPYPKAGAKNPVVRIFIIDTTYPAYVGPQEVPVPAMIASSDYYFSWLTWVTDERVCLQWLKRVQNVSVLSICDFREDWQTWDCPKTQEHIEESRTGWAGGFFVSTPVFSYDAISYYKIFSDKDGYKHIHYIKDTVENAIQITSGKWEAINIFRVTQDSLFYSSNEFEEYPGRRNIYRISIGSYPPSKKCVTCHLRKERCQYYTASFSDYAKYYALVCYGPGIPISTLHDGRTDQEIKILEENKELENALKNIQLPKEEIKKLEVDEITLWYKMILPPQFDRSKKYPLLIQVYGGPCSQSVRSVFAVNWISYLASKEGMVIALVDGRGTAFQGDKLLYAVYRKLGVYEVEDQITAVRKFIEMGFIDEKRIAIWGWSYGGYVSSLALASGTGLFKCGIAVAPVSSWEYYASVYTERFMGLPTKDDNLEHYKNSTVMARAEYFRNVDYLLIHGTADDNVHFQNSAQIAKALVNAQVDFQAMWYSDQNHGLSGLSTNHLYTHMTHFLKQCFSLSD
Experimental: The enzymatic activity of purified FAP was measured at 25° C. on a Molecular Devices SPECTRAmax 340PC384 microtiter plate reader by monitoring the absorbance of H-Ala-Pro-pNA (Bachem) as the chromogenic substrate at 410 nm. […] Assays and their corresponding measurements were performed in duplicate. […] Inhibitor stock solutions (1 mM) were prepared in HCl solution (pH 2.0), and stored at −20° C. Stock solutions were diluted with 20 mM TRIS-HCl, KCl (20 mM) buffer at pH 7.4 immediately preceding the experiment according to the protocol.

DPP IV = DPP IV (Homo sapiens, UniProt P27487); assay: DPP IV inhibition (Table 1); type: biochemical; details: pH 8.0
Sequence of DPP IV (P27487 whole entry, species assumed): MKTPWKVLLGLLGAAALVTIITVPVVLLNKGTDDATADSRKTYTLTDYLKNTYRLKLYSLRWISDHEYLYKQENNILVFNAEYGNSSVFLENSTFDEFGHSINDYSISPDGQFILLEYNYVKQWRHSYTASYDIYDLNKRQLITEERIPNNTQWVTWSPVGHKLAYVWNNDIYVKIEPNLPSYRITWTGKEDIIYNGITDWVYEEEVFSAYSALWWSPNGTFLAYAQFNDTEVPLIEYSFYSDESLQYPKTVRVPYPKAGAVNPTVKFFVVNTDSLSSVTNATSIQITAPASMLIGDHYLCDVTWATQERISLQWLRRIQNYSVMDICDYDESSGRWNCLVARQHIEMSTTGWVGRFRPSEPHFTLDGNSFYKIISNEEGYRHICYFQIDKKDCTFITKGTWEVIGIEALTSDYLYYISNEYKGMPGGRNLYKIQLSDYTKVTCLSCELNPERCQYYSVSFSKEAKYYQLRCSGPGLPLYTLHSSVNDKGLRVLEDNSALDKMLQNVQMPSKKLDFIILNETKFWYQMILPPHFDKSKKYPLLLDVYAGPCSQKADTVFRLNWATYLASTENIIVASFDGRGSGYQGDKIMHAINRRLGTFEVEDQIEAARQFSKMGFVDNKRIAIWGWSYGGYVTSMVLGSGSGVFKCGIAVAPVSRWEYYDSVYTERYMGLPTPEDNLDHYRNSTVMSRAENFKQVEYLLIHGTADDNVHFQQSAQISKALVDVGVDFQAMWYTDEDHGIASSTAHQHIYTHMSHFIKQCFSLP

Structure (SMILES)	IC50 (FAP)	IC50 FAP (pH 7.4) (FAP)	IC50 (DPP IV)
CC[C@H](NC(=O)[C@@H](NC(C)=O)C(C)C)B(O)O [Compound 36]	–	no inhib.	–
CC[C@H](NC(=O)CNC(=O)c1cccc2ccccc12)B(O)O [Compound 34]	9 µM	–	–
O=C(NCC(=O)N1CCSC1)c1ccccc1 [Compound 31]	14 µM	–	–
CC(=O)N[C@H](C(=O)N[C@@H](C)B(O)O)C(C)C [Compound 35]	–	no inhib.	–
C[C@H](NC(=O)CNC(=O)c1cccc2ccccc12)B(O)O [Compound 33]	8.2 µM	–	–

Continued, values first:

IC50 (FAP)	IC50 FAP (pH 7.4) (FAP)	IC50 (DPP IV)	Structure (SMILES)
2.2 µM	–	–	N#C[C@@H]1CCCN1C(=O)CNC(=O)c1ccccc1 [Compound 30]
30 µM	–	–	CC(C)[C@H](NC(=O)c1ccccc1)C(=O)N1CCC[C@H]1B(O)O [Compound 32]
–	–	46 µM	CCNCC(=O)N1CCCC1B(O)O (stereo not shown) [Compound 13]
0.99 µM	–	0.9 µM	CC(C)NCC(=O)N1CCCC1B(O)O (stereo not shown) [Compound 15]
–	no inhib.	560 µM	CNCC(=O)N1CCCC1B(O)O (stereo not shown) [Compound 12]
–	–	6.9 µM	NCC(=O)N1CCC[C@H]1B(O)O [Compound 6]
